Key:
Type in all cases: biochemical
[1] = biological target: T1, Flt1 (Homo sapiens, UniProt P17948); experiment: AlphaScreen kinase assay, Flt1; settings: read-out: IC50, activity toward kinase Flt1
T1 construct: P1826.pETN6 BI-PTP FLT1 M799-D1165-X WT; His6 (N); made in house; host or cells: E. coli (PTP1B co-expressed)
T1 sequence (P17948 with tags, fused parts or gaps): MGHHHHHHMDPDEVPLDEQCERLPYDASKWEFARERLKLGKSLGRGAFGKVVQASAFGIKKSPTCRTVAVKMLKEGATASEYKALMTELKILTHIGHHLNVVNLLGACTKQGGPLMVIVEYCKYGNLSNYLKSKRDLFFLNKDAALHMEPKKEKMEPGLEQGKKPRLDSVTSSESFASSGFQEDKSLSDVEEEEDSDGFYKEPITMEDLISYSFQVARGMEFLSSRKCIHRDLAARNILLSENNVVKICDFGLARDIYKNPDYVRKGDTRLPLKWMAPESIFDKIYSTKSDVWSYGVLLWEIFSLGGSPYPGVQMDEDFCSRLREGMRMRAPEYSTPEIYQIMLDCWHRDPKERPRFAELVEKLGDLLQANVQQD

[2] = biological target: T2, Kit (Homo sapiens, UniProt P10721); experiment: AlphaScreen kinase assay, Kit; settings: read-out: IC50, activity toward kinase Kit
T2 construct: P1332.N6 BI PTP KIT M552-K948-X COD; His6 (N); made in house; host or cells: E. coli (PTP1B co-expressed)

[3] = biological target: T3, FGFR1 (Homo sapiens, UniProt P11362, C488A/C584S); experiment: AlphaScreen kinase assay, FGFR1; settings: read-out: IC50, activity toward kinase FGFR
T3 construct: P1351.pET N6 BI-PTP FGFR A458-E765-X C488A, C584S; made in house; host or cells: E. coli (PTP1B co-expressed)

[4] = biological target: T4, Fms (Homo sapiens, UniProt P07333); experiment: AlphaScreen kinase assay, Fms; settings: read-out: IC50, activity toward kinase Fms
T4 construct: purchased Upstate Biotechnology

[5] = biological target: T5, B-Raf V600E (Homo sapiens, UniProt P15056, V600E); experiment: AlphaScreen kinase assay, B-Raf V600E; settings: read-out: IC50, activity toward kinase B-Raf V600E
T5 construct: P4254. pFastBacBD-CDC37 BRAF D437-K722-X, V600E; His6 with pFastBac HT leader (TEV site) (N); made in house; host or cells: Sf9 (baculovirus; chaperone CDC37 co-expressed)
T5 sequence (P15056 with tags, fused parts or gaps V600E): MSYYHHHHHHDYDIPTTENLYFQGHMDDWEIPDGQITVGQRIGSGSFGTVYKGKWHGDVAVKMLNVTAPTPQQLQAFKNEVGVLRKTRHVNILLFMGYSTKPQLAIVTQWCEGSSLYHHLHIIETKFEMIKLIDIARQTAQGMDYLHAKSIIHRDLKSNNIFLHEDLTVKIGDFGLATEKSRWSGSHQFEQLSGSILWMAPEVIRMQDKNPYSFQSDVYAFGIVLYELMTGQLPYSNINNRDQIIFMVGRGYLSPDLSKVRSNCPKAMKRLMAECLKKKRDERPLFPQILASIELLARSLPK

T3 sequence (P11362 458-765 C488A/C584S): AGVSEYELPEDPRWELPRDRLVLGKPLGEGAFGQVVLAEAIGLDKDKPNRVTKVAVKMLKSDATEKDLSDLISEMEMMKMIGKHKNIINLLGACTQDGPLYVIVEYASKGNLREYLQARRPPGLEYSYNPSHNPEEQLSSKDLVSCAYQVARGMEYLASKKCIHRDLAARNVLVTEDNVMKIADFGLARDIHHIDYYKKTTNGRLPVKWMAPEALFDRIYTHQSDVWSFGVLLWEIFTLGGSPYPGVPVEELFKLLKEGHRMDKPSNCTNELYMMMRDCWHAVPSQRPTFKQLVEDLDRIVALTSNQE
T2 sequence (P10721 with tags, fused parts or gaps): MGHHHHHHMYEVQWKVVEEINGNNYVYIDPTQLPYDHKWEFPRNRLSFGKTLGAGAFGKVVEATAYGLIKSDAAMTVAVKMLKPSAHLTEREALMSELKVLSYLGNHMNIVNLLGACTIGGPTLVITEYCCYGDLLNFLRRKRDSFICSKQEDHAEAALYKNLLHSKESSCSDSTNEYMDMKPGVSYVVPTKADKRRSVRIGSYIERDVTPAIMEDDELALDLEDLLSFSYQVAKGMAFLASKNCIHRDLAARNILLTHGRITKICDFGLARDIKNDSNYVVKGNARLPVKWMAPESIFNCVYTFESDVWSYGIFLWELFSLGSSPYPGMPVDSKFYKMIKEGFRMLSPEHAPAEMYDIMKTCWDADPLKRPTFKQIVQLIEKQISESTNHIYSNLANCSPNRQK
T4 sequence (P07333 20-972): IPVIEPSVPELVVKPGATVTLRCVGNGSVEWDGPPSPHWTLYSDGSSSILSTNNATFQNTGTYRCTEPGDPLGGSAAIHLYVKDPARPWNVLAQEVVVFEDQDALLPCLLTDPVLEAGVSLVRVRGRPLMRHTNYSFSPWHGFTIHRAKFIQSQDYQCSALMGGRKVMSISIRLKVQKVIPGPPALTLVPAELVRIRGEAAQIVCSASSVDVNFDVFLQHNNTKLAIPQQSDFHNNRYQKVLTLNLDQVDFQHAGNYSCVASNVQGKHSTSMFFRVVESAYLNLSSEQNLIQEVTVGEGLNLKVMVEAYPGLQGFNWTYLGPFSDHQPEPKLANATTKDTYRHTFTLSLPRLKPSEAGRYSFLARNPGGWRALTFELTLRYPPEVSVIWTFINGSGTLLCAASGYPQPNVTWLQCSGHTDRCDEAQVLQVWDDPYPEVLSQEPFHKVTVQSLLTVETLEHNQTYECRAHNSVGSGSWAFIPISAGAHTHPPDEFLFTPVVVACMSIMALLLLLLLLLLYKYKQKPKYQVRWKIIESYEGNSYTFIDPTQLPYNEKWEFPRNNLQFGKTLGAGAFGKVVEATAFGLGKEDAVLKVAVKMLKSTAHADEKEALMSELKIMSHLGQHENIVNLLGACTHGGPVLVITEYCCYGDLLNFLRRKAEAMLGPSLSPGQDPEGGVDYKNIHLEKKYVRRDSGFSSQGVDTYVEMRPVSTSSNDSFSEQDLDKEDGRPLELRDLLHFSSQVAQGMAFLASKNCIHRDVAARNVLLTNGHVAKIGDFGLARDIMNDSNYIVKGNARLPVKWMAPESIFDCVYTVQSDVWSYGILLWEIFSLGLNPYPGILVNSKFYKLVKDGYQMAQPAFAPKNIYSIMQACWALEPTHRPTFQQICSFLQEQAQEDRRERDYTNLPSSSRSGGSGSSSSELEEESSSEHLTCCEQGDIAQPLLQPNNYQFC

IC50 [1] | IC50 [2] | IC50 [3] | IC50 [4] | IC50 [5] | Structure (SMILES)
≤ 10 µM | ≤ 10 µM | ≤ 10 µM | ≤ 10 µM | – | OC(c1c(Cl)ccc(OCC(F)(F)F)c1F)c1c[nH]c2ncc(Br)cc12 (centres unmarked) [Compound P-1393, (5-Bromo-1H-pyrrolo[2,3-b]pyridin-3-yl)-[6-chloro-2-fluoro-3-(2,2,2-trifluoro-ethoxy)-phenyl]-methanol]
≤ 10 µM | ≤ 10 µM | ≤ 10 µM | ≤ 10 µM | – | COC(=O)/C=C/c1cccc(-c2cnc3[nH]cc(C(=O)c4cccc(NS(C)(=O)=O)c4)c3c2)c1 [Compound P-1404]
≤ 10 µM | ≤ 10 µM | – | ≤ 10 µM | ≤ 10 µM | CS(=O)(=O)Nc1cccc(-c2cnc3[nH]cc(C(=O)c4cccc(C(F)(F)F)c4)c3c2)c1 [Compound P-1425, N-{3-[3-(3-Trifluoromethyl-benzoyl)-1H-pyrrolo[2,3-b]pyridin-5-yl]-phenyl}-methanesulfonamide]
≤ 10 µM | ≤ 10 µM | – | ≤ 10 µM | – | CS(=O)(=O)Nc1cccc(-c2cnc3[nH]cc(C(=O)c4cc(F)cc(C(F)(F)F)c4)c3c2)c1 [Compound P-1427, N-{3-[3-(3-Fluoro-5-trifluoromethyl-benzoyl)-1H-pyrrolo[2,3-b]pyridin-5-yl]-phenyl}-methanesulfonamide]
≤ 10 µM | ≤ 10 µM | ≤ 10 µM | ≤ 10 µM | – | CS(=O)(=O)Nc1cccc(-c2cnc3[nH]cc(C(=O)c4cccc(OC(F)(F)F)c4)c3c2)c1 [Compound P-1428, N-{3-[3-(3-Trifluoromethoxy-benzoyl)-1H-pyrrolo[2,3-b]pyridin-5-yl]-phenyl}-methanesulfonamide]
≤ 10 µM | ≤ 10 µM | ≤ 10 µM | ≤ 10 µM | – | COc1cc(OC)cc(C(O)c2c[nH]c3ncc(Br)cc23)c1 (centres unmarked) [Compound P-1460]
≤ 10 µM | ≤ 10 µM | ≤ 10 µM | ≤ 10 µM | – | COc1cc(OC)cc(C(OC)c2c[nH]c3ncc(Br)cc23)c1 (centres unmarked) [Compound P-1461]
≤ 10 µM | ≤ 10 µM | ≤ 10 µM | ≤ 10 µM | – | COc1cc(OC)cc(C(=O)c2c[nH]c3ncc(Br)cc23)c1 [Compound P-1463, (5-Bromo-1H-pyrrolo[2,3-b]pyridin-3-yl)-(3,5-dimethoxy-phenyl)-methanone]
≤ 10 µM | ≤ 10 µM | ≤ 10 µM | ≤ 10 µM | – | COc1cc(Cc2c[nH]c3ncc(Br)cc23)cc(OC)c1 [Compound P-1464, 5-Bromo-3-(3,5-dimethoxy-benzyl)-1H-pyrrolo[2,3-b]pyridine]
≤ 10 µM | ≤ 10 µM | – | ≤ 10 µM | – | c1ccc(Cc2cccc(Nc3c[nH]c4ncccc34)c2)cc1 [Compound P-1497, (3-Benzyl-phenyl)-(1H-pyrrolo[2,3-b]pyridin-3-yl)-amine]
≤ 10 µM | ≤ 10 µM | – | ≤ 10 µM | – | Oc1ccc(Nc2c[nH]c3ncccc23)c(F)c1 [Compound P-1499, 3-Fluoro-4-(1H-pyrrolo[2,3-b]pyridin-3-ylamino)-phenol]
≤ 10 µM | – | ≤ 10 µM | ≤ 10 µM | – | O=C(Nc1ccc(F)c(Cc2c[nH]c3ncc(Cl)cc23)c1F)N1CCOCC1 [Compound P-1595, Morpholine-4-carboxylic acid [3-(5-chloro-1H-pyrrolo[2,3-b]pyridin-3-ylmethyl)-2,4-difluoro-phenyl]-amide]
≤ 10 µM | – | – | ≤ 10 µM | ≤ 10 µM | O=C(c1c(F)ccc(NC(=O)N2CCOCC2)c1F)c1c[nH]c2ncc(Cl)cc12 [Compound P-1606, Morpholine-4-carboxylic acid [3-(5-chloro-1H-pyrrolo[2,3-b]pyridine-3-carbonyl)-2,4-difluoro-phenyl]-amide]
≤ 10 µM | – | ≤ 10 µM | ≤ 10 µM | – | CCCCN(C)C(=O)Nc1ccc(F)c(Cc2c[nH]c3ncc(Cl)cc23)c1F [Compound P-1625, 1-Butyl-3-[3-(5-chloro-1H-pyrrolo[2,3-b]pyridin-3-ylmethyl)-2,4-difluoro-phenyl]-1-methyl-urea]

— US8415469B2, “Compounds and methods for kinase modulation, and indications therefor” (Plexxikon Inc., priority 2005, dated 2013)
